Biological target: human adenosine A2b receptor (Homo sapiens (Human), UniProt P29275)
Assay: Cellular in vitro reporter gene test for A2b receptor activity (CHO-K1, CRE-luciferase, NECA stimulation)
Format: cell-based
Conditions: recombinant CHO-K1 cell line, CRE-luciferase reporter, antagonism of EC50 concentration of NECA; in some cases means of several determinations, rounded to two significant figures; read-out: A2b receptor IC50
How it was run: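 CHO-K1 cells with CRE-driven luciferase; antagonists co-incubated with NECA at its EC50, determined in a pre-experiment on each test day. Luciferase read by luminescence 3 h after NECA addition.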

Sequence of human adenosine A2b receptor (P29275 whole entry): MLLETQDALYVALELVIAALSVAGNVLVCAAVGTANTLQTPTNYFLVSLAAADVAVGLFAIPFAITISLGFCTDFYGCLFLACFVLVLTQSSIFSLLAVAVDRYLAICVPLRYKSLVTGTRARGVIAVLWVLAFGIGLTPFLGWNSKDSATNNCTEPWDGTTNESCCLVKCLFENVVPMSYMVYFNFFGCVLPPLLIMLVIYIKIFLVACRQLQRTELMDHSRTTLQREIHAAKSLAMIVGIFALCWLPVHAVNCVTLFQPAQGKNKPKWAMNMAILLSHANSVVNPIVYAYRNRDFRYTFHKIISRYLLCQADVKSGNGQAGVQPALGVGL

## CCn1c(=O)c2c(C)c(CN3CCNC(=O)C3=O)sc2n(CC2CCCO2)c1=O (racemic) [Example 475, 6-[(2,3-Dioxopiperazin-1-yl)methyl]-3-ethyl-5-methyl-1-(tetrahydrofuran-2-ylmethyl)thieno[2,3-d]pyrimidine-2,4(1H,3H)-dione]
  IC50: 36 nM

## CCn1c(=O)c2c(C)c(CN3CC[C@@H](O)C3=O)sc2n(CCOC)c1=O [Example 7, 3-Ethyl-6-{[(3R)-3-hydroxy-2-oxopyrrolidin-1-yl]methyl}-1-(2-methoxyethyl)-5-methylthieno[2,3-d]pyrimidine-2,4(1H,3H)-dione]
  IC50: 33 nM

## COCCn1c(=O)n(CC(F)(F)F)c(=O)c2c(C)c(Cn3nc[nH]c3=O)sc21 [Example 433, 1-(2-Methoxyethyl)-5-methyl-6-[(5-oxo-4,5-dihydro-1H-1,2,4-triazol-1-yl)methyl]-3-(2,2,2-trifluoroethyl)thieno[2,3-d]pyrimidine-2,4(1H,3H)-dione]
  IC50: 58 nM

## COCCn1c(=O)n(CCc2ccccc2)c(=O)c2c(C)c(CN3CCOCC3=O)sc21 [Example 13, 1-(2-Methoxyethyl)-5-methyl-6-[(3-oxomorpholin-4-yl)methyl]-3-(2-phenylethyl)thieno[2,3-d]pyrimidine-2,4(1H,3H)-dione]
  IC50: 17 nM

## COC(C)Cn1c(=O)c2c(C)c(CN3CCNC3=NC#N)sc2n(CCC(F)(F)F)c1=O (racemic) [Example 454, [1-{[3-(2-Methoxypropyl)-5-methyl-2,4-dioxo-1-(3,3,3-trifluoropropyl)-1,2,3,4-tetrahydrothieno[2,3-d]pyrimidin-6-yl]methyl}imidazolidin-2-ylidene]cyanamide]
  IC50: 6.1 nM

## Cc1c(CN2CCNC2=NC#N)sc2c1c(=O)n(CC(C)(C)C)c(=O)n2CCC(F)(F)F [Example 443, [1-{[3-(2,2-Dimethylpropyl)-5-methyl-2,4-dioxo-1-(3,3,3-trifluoropropyl)-1,2,3,4-tetrahydrothieno[2,3-d]pyrimidin-6-yl]methyl}imidazolidin-2-ylidene]cyanamide]
  IC50: 7.4 nM

## COCCn1c(=O)c2c(C)c(CN3CCNC(=O)C3=O)sc2n(CC2CCO2)c1=O (single isomer, unassigned) [Example 401, 6-[(2,3-Dioxopiperazin-1-yl)methyl]-3-(2-methoxyethyl)-5-methyl-1-(oxetan-2-ylmethyl)thieno[2,3-d]pyrimidine-2,4(1H,3H)-dione]
  IC50: 660 nM

## Cc1c(CN2CCNC(=O)C2=O)sc2c1c(=O)n(CC(C)(C)C)c(=O)n2CCC(F)(F)F [Example 272, 3-(2,2-Dimethylpropyl)-6-[(2,3-dioxopiperazin-1-yl)methyl]-5-methyl-1-(3,3,3-trifluoropropyl)thieno[2,3-d]pyrimidine-2,4(1H,3H)-dione]
  IC50: 10 nM

## COCCn1c(=O)n(C(C)C(F)(F)F)c(=O)c2c(C)c(CN3CCNC3=NC#N)sc21 (single isomer, unassigned) [Example 510, [1-{[1-(2-Methoxyethyl)-5-methyl-2,4-dioxo-3-(1,1,1-trifluoropropan-2-yl)-1,2,3,4-tetrahydrothieno[2,3-d]pyrimidin-6-yl]methyl}imidazolidin-2-ylidene]cyanamide]
  IC50: 47 nM

## Cc1c(CN2CCNC2=NC#N)sc2c1c(=O)n(C(C)C)c(=O)n2CC1CCCO1 (single isomer, unassigned) [Example 357, [1-{[3-Isopropyl-5-methyl-2,4-dioxo-1-(tetrahydrofuran-2-ylmethyl)-1,2,3,4-tetrahydrothieno[2,3-d]pyrimidin-6-yl]methyl}imidazolidin-2-ylidene]cyanamide]
  IC50: 32 nM

## Cc1c(CN2CCNC(=O)C2=O)sc2c1c(=O)n(C(C)C)c(=O)n2CC1CCCO1 (single isomer, unassigned) [Example 482, 6-[(2,3-Dioxopiperazin-1-yl)methyl]-3-isopropyl-5-methyl-1-(tetrahydrofuran-2-ylmethyl)thieno[2,3-d]pyrimidine-2,4(1H,3H)-dione]
  IC50: 410 nM
